Source: PMC11063393 (Heliyon, 2024)

Molecular target: tyrosinase
Test: absorbance at […] nm, L-DOPA oxidation
Type: biochemical
Details: L-DOPA […] stock, […] phosphate, pH […] °C, […] min preincubation

O=c1c(O)c(-c2ccc(O)c(O)c2)oc2cc(O)cc(O)c12 [Quercetin]
Control (Quercetin) / IC50 (μg/mL)s: 22.15 ± 0.12 µg/mL
